Results reported in paper PMC7672424 (Nucleic Acids Research, 2020).

Key:
Duplex = assay: CD melting, DNA stabilization; assay type: binding; conditions: 5 µM DNA (19AT), 20 µM BMPQ-1, 10 mM Tris-HCl, 50 mM KCl, pH 7.4
Method: Figure S2. Normalized CD thermal melting curves of DNAs in the absence or presence of BMPQ-1 under K+ conditions. (A) TTA69, (B) TTA45, (C) TTA, (D) c-KIT1, (E) TBA, (F) duplex DNA 19AT. The DNA concentration was 5 µM, and BMPQ-1 was 10 µM or 20 µM. All measurements were carried out in the buffer with 10 mM Tris-HCl (pH 7.4), 50 mM KCl. […]

A549 = assay: Cell cytotoxicity assay (CCK8); assay type: cell-based, human; conditions: Homo sapiens, A549; CCK8, 48 h treatment
Method: (§1) The cell growth effect of BMPQ-1 against different cell lines were tested via measuring the quantity of living cells using the Cell Counting Kit-8 (CCK8) (DOJINDO, Japan) according to the instruction. Cells were seeded in a 96-well plate (5 × 10^3 cells/well) and grown for 24 h for attachment. Then the cells were treated with various concentrations of BMPQ-1 and incubated at 37°C with 5% CO2 for 48 h. After incubation, the old medium was discarded followed by adding fresh medium containing 10% FBS in DMEM. Then 100 μl CCK-8 (10% in grow medium) was added into each well, and the cells were further incubated for 1 h. The optical density (OD) was detected at 450 nm by an automated microplate reader (Bio-Rad). The IC50 values were derived from the curves of the mean percentage of survival against the drug concentration. All the experiments were performed in triplicate.
(§2) A Cell Counting Kit-8 (CCK8) (DOJINDO, Japan) was employed to evaluate the cytotoxicity of BMPQ-1 on human alveolar basal epithelial cancer cell line (A549), human hepatocellular carcinoma cancer cell line (HepG2), human gastric cancer cell line (MGC-803), human colon adenocarcinoma (HT29), human normal liver Cells (HL-7702).

HT29 = assay: Cell cytotoxicity assay (CCK8); assay type: cell-based, human; conditions: Homo sapiens, HT-29; CCK8, 48 h treatment
Method: as §1, §2

HepG2 = assay: Cell cytotoxicity assay (CCK8); assay type: cell-based, human; conditions: Homo sapiens, HepG2; CCK8, 48 h treatment
Method: as §1, §2

MGC-803 = assay: Cell cytotoxicity assay (CCK8); assay type: cell-based, human; conditions: Homo sapiens, MGC-803; CCK8, 48 h treatment
Method: as §1, §2

[1] = test system: human normal liver cells (HL-7702); assay: Cell cytotoxicity assay (CCK8); assay type: cell-based; conditions: L02, CCK8, 48 h treatment
Method: as §1, §2

HT29 xenograft = HT29 xenograft mouse model; assay type: in vivo
Method: Male BALB/C-nu/nu mice (4 weeks old) were purchased from the Beijing Vital River Laboratory Animal Technology Co., Ltd. and housed at Experimental Animal Center of Huazhong Agriculture University (Wuhan, China) and maintained in pathogen-free conditions (12 h light–dark cycle at 24 ± 1°C with 60−70% humidity and provided with food and water ad libitum). HT29 cells were harvested during log-phase growth and were resuspended in FBS-free DMEM medium to the density of 4 × 10^6 cells per 100 μl. 100 μl cells were injected subcutaneously in the right back of the mice. Tumor growth was examined three times a week after implantation, until the tumor volume reached ∼40 mm^3. The mice were randomly divided into two groups, and each group had five mice. Subcutaneous injection was carried out with BMPQ-1 at a dose of 15 mg/kg for the mice in the experimental group. Mice in the control group were treated with an equivalent volume of normal saline. The volume of the tumor mass was measured with an electronic caliper and calculated as 1/2 × length × width^2 in mm^3. The tumors size and the body weight of the mice were measured every day after drug treatment, and growth curves were plotted using average tumor volume within each experimental group. After treatment for 3 weeks, tumor tissues were collected and tested for the weight and the volume.
We tested BMPQ-1 in a HT29 xenograft mouse model of human colon adenocarcinoma. HT29 tumors were established through the subcutaneous injection of HT29 cells into the right back of BALB/C-nu/nu mice ([57],[58]). The mice were divided into normal saline treated group, and BMPQ-1 (15 mg/kg) treated group, n = 5/group. Subcutaneous injection was given daily. After 3 weeks treatment, the tumors were excised and measured for final size (Figure 3B). The tumor volume in the normal saline group reached 700 mm^3 (Figure 3C). In contrast, in the tumor-bearing mice treated with BMPQ-1, the tumor volume was ∼300 mm^3.

TTA45 = assay: smFRET analysis of TTA45 conformational ensemble; assay type: binding, human; conditions: from high-FRET population against BMPQ-1 concentration; read-out: dissociation constant (KD)
Method: 5′- FAM and 3′-Cy5 labeled TTA45 oligonucleotides were annealed in the buffer of 10 mM Tris–HCl (pH 7.4) and 100 mM KCl, by heating to 95°C for 5 min and slowly cooling down to room temperature. smFRET data collection and analysis were performed as previously described ([43]). In brief, an A1 confocal microscope (Nikon, Japan) coupled to two picosecond pulsed diode laser heads (LDH-P-C-485B and LDH-P-C-640B, PicoQuant, Germany) and two SPCM-AQRH detectors (Excelitas, Canada) was used for fluorescence excitation and emission detection. A 60 × water immersion objective (WI 60×, NA 1.20, Nikon, Japan) was used for confocal laser microscopy, and the pinhole size was set at ∼100 μm. The laser power before the objective was set at ∼100 μW for the 485-nm laser and ∼35 μW for the 640-nm laser. […]
The smFRET measurements were performed at room temperature in pH 7.4 buffer containing 10 mM Tris–HCl, 100 mM KCl, and 0.01% (v/v) Tween 20, with additional 1 mM ascorbic acid and 1 mM methylviologen for photo bleaching and blinking minimization ([44]). […] The exact FRET efficiencies were calculated based on our calibrated parameters for the instrument and fluorophores, and the FRET efficiency distribution was analyzed with a multi-Gaussian mixture using a handwritten script.

[2] = test system: Tel26 (DNA, G4) AAAGGGTTAGGGTTAGGGTTAGGGAA; assay: CD titration; conditions: 100 mM K+; 10 mM Tris-HCl pH 7.4; 265 nm peak decreased
[3] = 15 mg/kg subcutaneous daily, 3 weeks

In the case of Cc1ccc(Cn2cc3c(-c4ccc5c(c4)OCO5)nnc-3c3cc4c(cc32)OCO4)cc1 [BMPQ-1], the “ΔTm (°C) Duplex” value (Duplex) is reported as 1.8 °C, the IC50 (A549) is reported as 1460 ± 160 nM and the IC50 (HT29) is reported as 1400 ± 60 nM. The IC50 (HepG2) was 2140 ± 260 nM, the IC50 (MGC-803) was 2360 ± 480 nM and the IC50 [1] was 4380 ± 390 nM. For the same compound, the mouse body weight (HT29 xenograft; [3]) was “no significant change”, the tumor weight (HT29 xenograft; [3]) was “obvious decrease” and the tumor volume (HT29 xenograft; 15 mg/kg subcutaneous daily, 3 weeks, saline group 700 mm^3) was about 300 mm^3. The “tumor growth rate in mouse” value (HT29 xenograft; versus control) was “by half”, the Kd (TTA45) was 530 nM and the binding [2] was “yes”.
